{"source": "patent US20260258003A1", "about": "“SLACK-ACTIVATING COMPOUNDS AND THEIR MEDICAL USE” (Johann Wolfgang Goethe-Universität Frankfurt am Main, priority 2023, published 2026)", "key": {"human Slack": {"target": "T1, human Slack (Homo sapiens, UniProt Q5JUK3)", "T1 construct": "host or cells: HEK293", "T1 sequence (Q5JUK3 1-1230)": "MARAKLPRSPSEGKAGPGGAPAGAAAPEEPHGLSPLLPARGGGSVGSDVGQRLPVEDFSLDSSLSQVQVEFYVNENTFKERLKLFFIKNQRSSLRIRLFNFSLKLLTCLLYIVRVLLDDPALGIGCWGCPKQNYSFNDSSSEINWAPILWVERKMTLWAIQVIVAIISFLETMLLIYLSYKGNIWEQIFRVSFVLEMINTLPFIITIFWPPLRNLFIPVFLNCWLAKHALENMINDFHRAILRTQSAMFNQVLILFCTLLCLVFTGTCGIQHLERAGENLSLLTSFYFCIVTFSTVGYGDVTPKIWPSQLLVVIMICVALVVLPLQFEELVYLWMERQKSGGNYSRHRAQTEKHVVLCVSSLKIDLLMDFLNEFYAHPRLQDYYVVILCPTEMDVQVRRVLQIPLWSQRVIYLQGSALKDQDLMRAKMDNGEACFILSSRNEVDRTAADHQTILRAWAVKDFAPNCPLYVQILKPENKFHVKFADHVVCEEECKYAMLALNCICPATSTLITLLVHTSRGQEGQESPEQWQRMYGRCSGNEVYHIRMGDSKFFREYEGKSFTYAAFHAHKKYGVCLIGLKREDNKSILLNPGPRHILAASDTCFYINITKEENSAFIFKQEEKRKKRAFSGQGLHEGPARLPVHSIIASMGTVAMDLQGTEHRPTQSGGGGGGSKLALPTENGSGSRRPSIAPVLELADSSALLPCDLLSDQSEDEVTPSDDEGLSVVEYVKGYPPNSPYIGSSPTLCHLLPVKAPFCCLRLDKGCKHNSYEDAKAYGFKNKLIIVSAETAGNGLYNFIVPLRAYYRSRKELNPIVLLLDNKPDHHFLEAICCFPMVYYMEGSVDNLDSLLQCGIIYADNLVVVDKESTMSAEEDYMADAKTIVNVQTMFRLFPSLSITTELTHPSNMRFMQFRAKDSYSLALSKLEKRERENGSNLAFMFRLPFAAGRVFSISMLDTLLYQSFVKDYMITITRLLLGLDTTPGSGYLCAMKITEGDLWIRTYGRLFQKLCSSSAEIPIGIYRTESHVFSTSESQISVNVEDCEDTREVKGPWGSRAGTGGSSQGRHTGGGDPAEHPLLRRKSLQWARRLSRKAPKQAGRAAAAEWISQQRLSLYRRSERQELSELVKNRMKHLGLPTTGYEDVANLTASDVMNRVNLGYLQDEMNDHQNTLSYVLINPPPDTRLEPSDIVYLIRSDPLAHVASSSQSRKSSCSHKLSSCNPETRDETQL", "test": "Whole-cell patch-clamp recordings in HEK-Slack cells", "assay_type": "cell-based", "protocol": "Generally, in these experiments, HEK-Slack cells were plated onto poly-D-lysine-coated (100 μg/mL, Sigma Aldrich) coverslips 1 day before experiments and cultured in DMEM containing 10% FBS and 1% penicillin/streptomycin in 5% CO2 at 37° C. Whole-cell voltage clamp recordings were acquired using an EPC 9 amplifier combined with Patchmaster software (HEKA Electronics, Lambrecht/Pfalz, Germany). Currents were sampled at 20 kHz and filtered at 5 KHz. Data analysis was performed using the Fitmaster software (HEKA Electronics). Membrane potential was held at −70 mV and outward K^+ current (IK) was evoked by depolarizing steps (500 ms duration) ranging from −120 to +120 mV in increments of 20 mV. The pipette solution contained 140 mM KCl, 2 mM MgCl2, 5 mM EGTA, 10 mM HEPES, and was adjusted to pH 7.4 with KOH. The extracellular solution contained 140 mM NaCl, 5 mM KCl, 2 mM CaCl2), 2 mM MgCl2, 10 mM HEPES, and was adjusted to pH 7.4 with NaOH.\nAt a holding potential of −70 mV a series of 500 ms-long test pulses ranging from −120 to +120 mV in intervals of 20 mV were applied.\nFold increase values in patch-clamp experiments were determined by calculating […]."}, "[1]": {"target": "T2, alpha-1A adrenergic receptor (α1A) (Homo sapiens, UniProt P35348)", "T2 construct": "Eurofins SafetyScreen44", "T2 sequence (P35348 whole entry)": "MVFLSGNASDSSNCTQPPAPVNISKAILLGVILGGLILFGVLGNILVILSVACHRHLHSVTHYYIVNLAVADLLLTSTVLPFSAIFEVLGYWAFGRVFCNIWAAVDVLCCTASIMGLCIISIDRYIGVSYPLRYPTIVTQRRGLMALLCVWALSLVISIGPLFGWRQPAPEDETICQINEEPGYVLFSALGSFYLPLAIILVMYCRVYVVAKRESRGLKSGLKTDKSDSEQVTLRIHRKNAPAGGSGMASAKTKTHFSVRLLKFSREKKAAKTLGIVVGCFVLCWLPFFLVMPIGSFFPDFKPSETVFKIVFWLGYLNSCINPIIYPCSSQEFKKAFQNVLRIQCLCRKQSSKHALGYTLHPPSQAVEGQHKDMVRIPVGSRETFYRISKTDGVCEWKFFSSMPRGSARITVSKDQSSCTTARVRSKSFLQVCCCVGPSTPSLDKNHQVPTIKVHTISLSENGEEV", "test": "SafetyScreen44 binding", "settings": "substantial = higher than 50%", "protocol": "(§1) Compound enzyme inhibition effect was calculated as a % inhibition of control enzyme activity. […] Measurements were performed in duplicate."}, "[2]": {"target": "T3, histamine H1 receptor (H1) (Homo sapiens, UniProt P35367)", "T3 construct": "Eurofins SafetyScreen44", "T3 sequence (P35367 whole entry)": "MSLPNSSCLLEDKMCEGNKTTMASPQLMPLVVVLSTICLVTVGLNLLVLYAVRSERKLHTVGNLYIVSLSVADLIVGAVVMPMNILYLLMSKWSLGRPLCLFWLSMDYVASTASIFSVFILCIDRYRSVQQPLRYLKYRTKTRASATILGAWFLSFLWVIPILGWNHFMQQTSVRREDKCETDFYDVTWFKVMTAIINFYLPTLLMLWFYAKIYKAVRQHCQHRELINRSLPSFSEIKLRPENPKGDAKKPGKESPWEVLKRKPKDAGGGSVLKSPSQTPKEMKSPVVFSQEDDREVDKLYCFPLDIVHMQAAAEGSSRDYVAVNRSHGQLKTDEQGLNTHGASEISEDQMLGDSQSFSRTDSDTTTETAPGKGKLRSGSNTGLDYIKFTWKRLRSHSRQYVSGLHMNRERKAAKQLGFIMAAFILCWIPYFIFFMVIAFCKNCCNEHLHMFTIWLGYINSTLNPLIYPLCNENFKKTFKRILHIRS", "test": "SafetyScreen44 binding", "settings": "10 μM; substantial = higher than 50%", "protocol": "as §1"}, "[3]": {"target": "T4, dopamine receptor D1 (D1) (Homo sapiens, UniProt P21728)", "T4 construct": "Eurofins SafetyScreen44", "T4 sequence (P21728 whole entry)": "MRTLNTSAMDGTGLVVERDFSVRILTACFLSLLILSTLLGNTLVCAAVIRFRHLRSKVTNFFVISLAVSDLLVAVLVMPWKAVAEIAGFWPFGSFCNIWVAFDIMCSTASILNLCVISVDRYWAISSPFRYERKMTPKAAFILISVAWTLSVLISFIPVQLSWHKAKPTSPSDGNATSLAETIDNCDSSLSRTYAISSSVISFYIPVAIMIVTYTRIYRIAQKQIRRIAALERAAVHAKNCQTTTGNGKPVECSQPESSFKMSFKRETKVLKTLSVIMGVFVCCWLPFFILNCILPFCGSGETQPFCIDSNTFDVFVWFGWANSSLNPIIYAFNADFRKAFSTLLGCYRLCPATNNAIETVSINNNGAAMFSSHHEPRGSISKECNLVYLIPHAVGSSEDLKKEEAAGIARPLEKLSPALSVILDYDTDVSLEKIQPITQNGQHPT", "test": "SafetyScreen44 binding", "settings": "10 μM; substantial = higher than 50%", "protocol": "as §1"}, "[4]": {"tested_on": "neuropathic pain behavior of mice", "test": "Spared nerve injury (SNI) model of neuropathic pain", "assay_type": "in vivo", "settings": "i.p., 28 days after SNI surgery, assessed over 3 h", "protocol": "FIG. 8: Compound 6 and Compound 10 inhibit histamine-independent acute itch behavior and neuropathic pain behavior. (A), (B), Motor function. […] Dotted lines indicate cutoff times. * p<0.05, *** p<0.001, Kruskal-Wallis test. (C)-(G), Acute itch behavior. Compound 6, Compound 10 or vehicle were i.p. administered and 15 min thereafter different pruritogens were s.c. administered into the nape of the neck and the number of scratching bouts was counted over 30 min. In each panel, the time course of scratching behavior is shown on the left and the sum of scratching bouts in 30 min is presented on the right. (C), Compound 6 and Compound 10 inhibited the scratching behavior induced by chloroquine in a dose-dependent manner. (D) Compound 6 inhibited the chloroquine-induced scratching behavior in WT mice but not in Slack^−/− littermates. (E) Compound 6 ameliorated the scratching behavior induced by SLIGRL, (F) but not by histamine. n=7-8 per group. […] Twenty-eight days thereafter, mechanical hypersensitivity of the affected hindpaw (determined using a Dynamic Plantar Aesthesiometer), which is indicated by decreased paw withdrawal latency time, was detected in all mice. Then Compound 10 or vehicle were i.p. administered and the mechanical sensitivity was assessed over 3 h. […]"}}, "data": [{"smiles": "CN1CCCN(C2=Nc3ccccc3Oc3ccc(C(F)(F)F)cc32)CC1", "note": "[Compound 3, 11-(4-Methyl-1,4-diazepan-1-yl)-2-(trifluoromethyl)dibenzo[b,f][1,4]oxazepine]", "values": [{"measurement": "IK amplitude in comparison to vehicle", "setting": "human Slack; 50 μM", "result": "all except Compound 3"}]}, {"smiles": "O=C(O)COCCN1CCN(C2=Nc3ccccc3Oc3ccc(Cl)cc32)CC1", "note": "[Compound 6, 2-(2-(4-(2-Chlorodibenzo[b,f][1,4]oxazepin-11-yl)piperazin-1-yl)ethoxy) acetic acid]", "values": [{"measurement": "binding inhibition, α1A", "setting": "[1]; 10 μM", "result": "substantial binding"}, {"measurement": "binding inhibition, H1", "setting": "[2]", "result": "substantial binding"}, {"measurement": "binding inhibition, D1", "setting": "[3]", "result": "substantial binding"}]}, {"smiles": "O=c1nc(CN2CCN(C3=Nc4ccccc4Oc4ccc(Cl)cc43)CC2)[nH][nH]1", "note": "[Compound 10, 5-((4-(2-Chlorodibenzo[b,f][1,4]oxazepin-11-yl)piperazin-1-yl)methyl)-1,2-dihydro-3H-1,2,4-triazol-3-one]", "values": [{"measurement": "fold increase compared to baseline", "setting": "human Slack; 25 μM", "result": "7.74±1.525", "unit": "fold"}, {"measurement": "fold increase compared to baseline", "setting": "human Slack; 50 μM", "result": "12.54±1.395", "unit": "fold"}, {"measurement": "binding inhibition, H1", "setting": "[2]", "result": "substantial binding inhibition"}, {"measurement": "binding inhibition, D1", "setting": "[3]", "result": "substantial binding inhibition"}, {"measurement": "neuropathic pain behavior (mechanical hypersensitivity, paw withdrawal latency)", "setting": "[4]", "result": "inhibited the neuropathic pain behavior"}]}, {"smiles": "CN1CCN(C2=Nc3ccccc3Oc3ccc(Cl)cc32)CC1", "note": "[Loxapine, 2-chloro-11-(4-methylpiperazin-1-yl)dibenzo[b,f][1,4]oxazepine, reference compound]", "values": [{"measurement": "inhibition at 10 µM", "setting": "[1]", "result": "> 50", "unit": "%"}]}]}
